{
  "source": "patent US3957790A",
  "about": "“N-(3,3-diphenylpropyl)-n'-aralkyl-substituted piperazines” (Tokyo Tanabe Company, Ltd., priority 1974, dated 1976)",
  "key": {"coronary blood flow": {"tested_on": "coronary blood flow", "assay": "coronary blood flow increasing action, measured in rabbits by the Langendorff method", "parameters": "species or system rabbit", "from_the_text": "The above-mentioned prior known derivatives of piperazine, however, have defects in that they are either too weak in the coronary blood flow increasing action [ED50 (mg)-the dose which can increase the coronary blood flow by 50%] or too strong in toxicity to be put to practical use as remedies for humans. Indeed, only one compound, trimetazidine dihydrochloride, [1-(2,3,4-trimethoxybenzyl)piperazine dihydrochloride)], is now being manufactured as a remedy for humans.\n(§1) To illustrate one of the pharmacological effects of these compounds comparative experiments were carried out on the coronary blood flow increasing action, which was measured in rabbits by the Langendorff method, and on acute toxicity using the said trimetazidine as control, with the results being shown in Table 1. The Langendorff method was carried out according to the method described in Folia Pharmacologica Japonica, vol. 56, p. 1387 (1960), and the acute toxicity was measured by injection into the peritoneal cavities of mice."}, "[1]": {"assay": "acute toxicity by injection into the peritoneal cavities of mice", "conditions": "in vivo", "experimental": "as §1"}},
  "note": "Where a name gives a salt, the structure may show the parent alone.",
  "data": [
    {"molecule": "COc1ccc(CN2CCN(CCC(c3ccccc3)c3ccccc3)CC2)c(OC)c1OC", "note": "[1-(3,3-diphenylpropyl)-4-(2,3,4-trimethoxybenzyl)-piperazinedihydrochloride]", "values": [
      {"measurement": "ED50 (coronary blood flow increasing action; dose which can increase the coronary blood flow by 50%)", "setting": "coronary blood flow", "value": 0.02, "unit": "mg"},
      {"measurement": "LD50", "setting": "[1]; mouse, ip", "value": 100, "unit": "mg/kg"}
    ]},
    {"molecule": "COc1cc(CN2CCN(CCC(c3ccccc3)c3ccccc3)CC2)cc(OC)c1OC.Cl.Cl", "note": "[1-(3,3-diphenylpropyl)-4-(3,4,5-trimethoxybenzyl)piperazine dihydrochloride]", "values": [
      {"measurement": "ED50 (coronary blood flow increasing action; dose which can increase the coronary blood flow by 50%)", "setting": "coronary blood flow", "value": 0.06, "unit": "mg"},
      {"measurement": "LD50", "setting": "[1]; ip mouse", "value": 89, "unit": "mg/kg"}
    ]},
    {"molecule": "COc1ccc(CN2CCN(CCC(c3ccccc3)c3ccccc3)CC2)cc1OC.Cl.Cl", "note": "[1-(3,3-diphenylpropyl)-4-(3,4-dimethoxybenzyl)piperazine dihydrochloride]", "values": [
      {"measurement": "ED50 (coronary blood flow increasing action; dose which can increase the coronary blood flow by 50%)", "setting": "coronary blood flow", "value": 0.05, "unit": "mg"},
      {"measurement": "LD50", "setting": "[1]; ip mouse", "value": 66, "unit": "mg/kg"}
    ]},
    {"molecule": "Cl.Cl.c1ccc(CN2CCN(CCC(c3ccccc3)c3ccccc3)CC2)cc1", "note": "[1-(3,3-diphenylpropyl)-4-benzylpiperazine dihydrochloride]", "values": [
      {"measurement": "ED50 (coronary blood flow increasing action; dose which can increase the coronary blood flow by 50%)", "setting": "coronary blood flow", "value": 0.08, "unit": "mg"},
      {"measurement": "LD50", "setting": "[1]; ip mouse", "value": 101, "unit": "mg/kg"}
    ]},
    {"molecule": "COc1ccc(CN2CCNCC2)c(OC)c1OC.Cl.Cl", "note": "[Trimetazidine, 1-(2,3,4-trimethoxybenzyl)piperazine dihydrochloride, reference compound]", "values": [
      {"measurement": "ED50 (coronary blood flow increasing action; dose which can increase the coronary blood flow by 50%)", "setting": "coronary blood flow", "value": 0.80, "unit": "mg"},
      {"measurement": "LD50", "setting": "[1]; ip mouse", "value": 390, "unit": "mg/kg"}
    ]}
  ]
}
